Source: ChEMBL document CHEMBL1201862, “PubChem BioAssay data set” (2004)
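1) Cells in 96-well plates. 2) Compound, 48 h, 5 concentrations. 3) Linear interpolation between surrounding doses. 4) Unreached endpoint = highest concentration. Here, GI50 denotes the concentration required for 50% inhibition of growth.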 Calls of active or inactive are those of the source. Rule as the data show it: active = GI50 up to about 1.1 µM and inactive = higher.

Columns and labels:
Assay in all cases: NCI anticancer screen, dose series, 48 h
A498 = system: A498
EKVX = system: EKVX
HCC 2998 = system: HCC 2998
HCT-116 = system: HCT-116
HCT-15 = system: HCT-15
MDA-MB-435 = system: MDA-MB-435
MOLT-4 = system: MOLT-4
NCI-H522 = system: NCI-H522
OVCAR-4 = system: OVCAR-4
OVCAR-8 = system: OVCAR-8
PC-3 = system: PC-3
RPMI-8226 = system: RPMI-8226
SF-268 = system: SF-268
SK-MEL-2 = system: SK-MEL-2
SK-MEL-5 = system: SK-MEL-5
T47D = system: T47D
U-251 = system: U-251
UACC-62 = system: UACC-62

SMILES | GI50 (A498) | GI50 (EKVX) | GI50 (HCC 2998) | GI50 (HCT-116) | GI50 (HCT-15) [µM] | GI50 (MDA-MB-435) | GI50 (MOLT-4) | GI50 (NCI-H522) | GI50 (OVCAR-4) | GI50 (OVCAR-8) | GI50 (PC-3) | GI50 (RPMI-8226) | GI50 (SF-268) | GI50 (SK-MEL-2) | GI50 (SK-MEL-5) | GI50 (T47D) | GI50 (U-251) | GI50 (UACC-62)
CC(C)c1cc(CN(C)C)c(O)c(C(C)(C)C)c1 | 20.7 µM (inactive) | 28.7 µM (inactive) | 16.1 µM (inactive) | 36.9 µM (inactive) | 23.7 | 36.3 µM (inactive) | 26.2 µM (inactive) | 15.9 µM (inactive) | 28.8 µM (inactive) | 30.3 µM (inactive) | 21.6 µM (inactive) | 13.9 µM (inactive) | 22 µM (inactive) | 18.1 µM (inactive) | 14.9 µM (inactive) | 24.7 µM (inactive) | 16.4 µM (inactive) | 54.1 µM (inactive)
Cn1c(=O)c2nc(CCCCc3nc4ccccc4[nH]3)[nH]c2n(C)c1=O | > 100 µM (inactive) | > 100 µM (inactive) | > 100 µM (inactive) | > 100 µM (inactive) | > 100 | > 100 µM (inactive) | > 100 µM (inactive) | > 100 µM (inactive) | > 100 µM (inactive) | > 100 µM (inactive) | > 100 µM (inactive) | > 100 µM (inactive) | > 100 µM (inactive) | > 100 µM (inactive) | > 100 µM (inactive) | > 100 µM (inactive) | > 100 µM (inactive) | > 100 µM (inactive)
CCC[C@H](C)[C@H]1NC(=O)[C@@H](NC(=O)[C@@H](CC(C)C)N(C)C(=O)C2CCCN2C(=O)[C@H](C)O)[C@@H](C)OC(=O)[C@H](CC(C)C)N(C)C(=O)[C@@H]2CCCN2C(=O)[C@H](CC(C)C)NC(=O)[C@@H](C)C(=O)[C@H](C(C)C)OC(=O)C[C@@H]1O (stereo not given in full) | 0.0115 µM (active) | < 0.0025 µM (active) | < 0.0025 µM (active) | < 0.0025 µM (active) | 0.0328 | < 0.0025 µM (active) | < 0.0025 µM (active) | < 0.0025 µM (active) | < 0.0025 µM (active) | < 0.0025 µM (active) | < 0.0025 µM (active) | < 0.0025 µM (active) | < 0.0025 µM (active) | < 0.0025 µM (active) | < 0.0025 µM (active) | < 0.0025 µM (active) | < 0.0025 µM (active) | < 0.0025 µM (active)
OC1CC2CCCN(CCc3c1[nH]c1ccccc31)C2 (stereo not given) | > 100 µM (inactive) |  | > 100 µM (inactive) | > 100 µM (inactive) | > 100 | > 100 µM (inactive) |  | > 100 µM (inactive) | > 100 µM (inactive) | > 100 µM (inactive) | > 100 µM (inactive) | > 100 µM (inactive) | > 100 µM (inactive) | > 100 µM (inactive) | 47.3 µM (inactive) | > 100 µM (inactive) | > 100 µM (inactive) | 86.7 µM (inactive)
